Data published in patent US20240158370A1, “CK1 alpha AND DUAL CK1 alpha / GSPT1 DEGRADING COMPOUNDS” (Innovo Therapeutics, Inc., priority 2022, published 2024).

Tests used:
[1] = target: T1, CK1α (Homo sapiens, UniProt P48729+Q96SW2); test: HiBiT degradation assay, CK1α, Procedure A; assay type: cell-based; conditions: six hours incubation
T1 construct: CSNK1A1-HiBit KI HEK293(LgBit) Cells; host or cells: HEK293(LgBit) knock-in cells
Outline: (§1)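 Luminescence from HiBiT lytic detection, read after 20 min shaking, gave DC50 and Ymin by 4-parameter fit. Before that, cells (1×10^6 cells/ml, DMEM+10% FBS) sat 6 h at 37° C on 10-point compound series (10 μM–0.005 μM, 0.1% DMSO).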

[2] = target: GSPT1 (Homo sapiens, UniProt P15170+Q96SW2); test: HiBiT degradation assay, GSPT1, Procedure A; assay type: cell-based; design: HiBit-GSPT1 KI HEK293(LgBit) Cells; host or cells: HEK293(LgBit) knock-in cells; conditions: six hours incubation
Sequence of GSPT1 (P15170 whole entry): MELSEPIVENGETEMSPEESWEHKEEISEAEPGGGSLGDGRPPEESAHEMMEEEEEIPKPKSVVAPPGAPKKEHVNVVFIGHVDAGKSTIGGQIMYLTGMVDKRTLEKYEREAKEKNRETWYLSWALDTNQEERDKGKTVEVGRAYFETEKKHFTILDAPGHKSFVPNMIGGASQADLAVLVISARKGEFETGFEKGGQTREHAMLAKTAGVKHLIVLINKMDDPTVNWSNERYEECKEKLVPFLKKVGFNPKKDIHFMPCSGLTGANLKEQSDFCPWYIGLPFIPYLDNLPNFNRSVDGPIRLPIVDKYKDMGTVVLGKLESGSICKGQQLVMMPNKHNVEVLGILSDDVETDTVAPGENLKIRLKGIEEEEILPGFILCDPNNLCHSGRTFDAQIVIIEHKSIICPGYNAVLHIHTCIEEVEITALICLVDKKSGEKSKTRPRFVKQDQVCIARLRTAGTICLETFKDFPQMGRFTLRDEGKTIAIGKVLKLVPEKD
Sequence of GSPT1 (Q96SW2 whole entry): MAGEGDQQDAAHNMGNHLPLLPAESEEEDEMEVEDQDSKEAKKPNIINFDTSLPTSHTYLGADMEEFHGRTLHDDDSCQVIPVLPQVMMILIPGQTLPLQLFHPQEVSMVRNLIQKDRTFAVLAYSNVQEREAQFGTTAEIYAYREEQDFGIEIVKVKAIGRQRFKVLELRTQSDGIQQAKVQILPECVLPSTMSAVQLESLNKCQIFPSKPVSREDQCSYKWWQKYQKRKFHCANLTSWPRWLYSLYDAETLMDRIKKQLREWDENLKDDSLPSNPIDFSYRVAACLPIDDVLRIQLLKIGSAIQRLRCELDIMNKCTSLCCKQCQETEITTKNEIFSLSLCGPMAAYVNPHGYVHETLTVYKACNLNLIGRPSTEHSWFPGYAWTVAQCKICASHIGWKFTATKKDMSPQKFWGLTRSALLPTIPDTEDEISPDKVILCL
Sequence of GSPT1 (Q16531 whole entry partner): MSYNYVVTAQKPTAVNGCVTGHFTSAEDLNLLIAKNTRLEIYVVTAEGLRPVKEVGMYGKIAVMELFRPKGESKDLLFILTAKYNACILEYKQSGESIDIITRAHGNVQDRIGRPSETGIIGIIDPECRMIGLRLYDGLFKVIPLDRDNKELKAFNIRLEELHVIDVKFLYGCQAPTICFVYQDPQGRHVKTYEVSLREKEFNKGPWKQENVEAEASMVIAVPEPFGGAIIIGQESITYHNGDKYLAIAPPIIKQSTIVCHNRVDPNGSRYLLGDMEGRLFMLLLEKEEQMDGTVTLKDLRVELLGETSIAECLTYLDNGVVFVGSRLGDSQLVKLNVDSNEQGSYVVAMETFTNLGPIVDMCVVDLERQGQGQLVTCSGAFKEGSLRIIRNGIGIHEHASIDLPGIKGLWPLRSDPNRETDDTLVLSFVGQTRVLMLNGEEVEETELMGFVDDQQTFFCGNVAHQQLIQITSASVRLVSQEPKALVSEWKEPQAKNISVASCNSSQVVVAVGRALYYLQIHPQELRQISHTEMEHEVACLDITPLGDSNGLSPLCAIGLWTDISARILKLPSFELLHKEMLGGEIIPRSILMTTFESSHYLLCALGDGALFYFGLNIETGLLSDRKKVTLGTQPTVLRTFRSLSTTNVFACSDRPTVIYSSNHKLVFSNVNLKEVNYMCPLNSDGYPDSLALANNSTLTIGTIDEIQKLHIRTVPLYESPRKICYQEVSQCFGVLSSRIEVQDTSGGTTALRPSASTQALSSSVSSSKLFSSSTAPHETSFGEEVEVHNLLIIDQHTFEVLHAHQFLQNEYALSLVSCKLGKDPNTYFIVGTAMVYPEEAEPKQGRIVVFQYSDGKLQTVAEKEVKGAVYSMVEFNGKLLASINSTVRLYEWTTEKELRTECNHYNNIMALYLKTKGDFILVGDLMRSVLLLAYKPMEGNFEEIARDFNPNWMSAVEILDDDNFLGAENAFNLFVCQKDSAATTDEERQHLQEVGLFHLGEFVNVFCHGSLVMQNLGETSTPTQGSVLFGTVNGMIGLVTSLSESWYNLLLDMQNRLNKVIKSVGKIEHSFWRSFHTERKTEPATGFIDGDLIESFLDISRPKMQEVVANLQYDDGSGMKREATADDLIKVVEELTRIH
Outline: as §1

T1 sequence (P48729 whole entry): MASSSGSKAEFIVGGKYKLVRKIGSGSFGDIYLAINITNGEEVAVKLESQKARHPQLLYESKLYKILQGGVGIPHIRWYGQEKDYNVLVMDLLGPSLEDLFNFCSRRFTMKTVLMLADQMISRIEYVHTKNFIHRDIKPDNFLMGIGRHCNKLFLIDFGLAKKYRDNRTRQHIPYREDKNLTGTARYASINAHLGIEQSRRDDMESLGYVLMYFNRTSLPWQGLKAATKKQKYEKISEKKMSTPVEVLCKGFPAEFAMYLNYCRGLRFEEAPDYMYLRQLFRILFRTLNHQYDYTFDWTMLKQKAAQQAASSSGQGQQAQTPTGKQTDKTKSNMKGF
T1 sequence (Q96SW2 whole entry): as the sequence (Q96SW2 whole entry) above
T1 sequence (Q16531 whole entry partner): as the sequence (Q16531 whole entry partner) above

Row | SMILES | CK1α Ymin [1] | DC50 [1] [nM] | DC50 [2] [nM] | GSPT1 Ymin [2]
1 | COc1ccc(-c2c(-c3ccc4c(c3)CN(C3CCC(=O)NC3=O)C4=O)cnn2C)cc1F (stereo not drawn) [Example 104] | C (C = 0-10% remaining) | < 25 | ≥ 25 | F (F = >75-100% remaining)
2 | Cn1ncc(-c2ccc3c(c2)CN(C2CCC(=O)NC2=O)C3=O)c1-c1cccc2c1OCC2 (stereo not drawn) [Example 105] | E (E = >25-75% remaining) | < 25 | ≥ 25 | F (F = >75-100% remaining)
3 | Cc1cccc(-c2c(-c3ccc4c(c3)CN(C3CCC(=O)NC3=O)C4=O)cnn2C)c1F (stereo not drawn) [Example 106] | E (E = >25-75% remaining) | < 25 | ≥ 25 | F (F = >75-100% remaining)
4 | COc1c(F)cccc1-c1c(-c2ccc3c(c2)CN(C2CCC(=O)NC2=O)C3=O)cnn1C (stereo not drawn) [Example 107] | E (E = >25-75% remaining) | < 25 | ≥ 25 | F (F = >75-100% remaining)
5 | Cn1ncc(-c2ccc3c(c2)CN(C2CCC(=O)NC2=O)C3=O)c1-c1cccc(F)c1Cl (stereo not drawn) [Example 108] | E (E = >25-75% remaining) | < 25 | ≥ 25 | F (F = >75-100% remaining)
6 | Cc1ccc(-c2c(-c3ccc4c(c3)CN(C3CCC(=O)NC3=O)C4=O)cnn2C)c(C#N)c1 (stereo not drawn) [Example 109] | E (E = >25-75% remaining) | < 25 | ≥ 25 | F (F = >75-100% remaining)
7 | Cn1ncc(-c2ccc3c(c2)CN(C2CCC(=O)NC2=O)C3=O)c1-c1ccc(C2(C#N)CC2)cc1 (stereo not drawn) [Example 110] | E (E = >25-75% remaining) | < 25 | ≥ 25 | F (F = >75-100% remaining)
8 | Cn1ncc(-c2ccc3c(c2)CN(C2CCC(=O)NC2=O)C3=O)c1-c1cccc(N2CCCCC2)c1 (stereo not drawn) [Example 111] | F (F = >75-100% remaining) | ≥ 25 | ≥ 25 | F (F = >75-100% remaining)
9 | Cn1ncc(-c2ccc3c(c2)CN(C2CCC(=O)NC2=O)C3=O)c1-c1ccc(COc2ccccc2)cc1 (stereo not drawn) [Example 112] | D (D = >10- 25% remaining) | < 25 | ≥ 25 | F (F = >75-100% remaining)
10 | COc1ccc(-c2c(-c3ccc4c(c3)CN(C3CCC(=O)NC3=O)C4=O)cnn2C)cc1OCc1ccccc1 (stereo not drawn) [Example 113] | D (D = >10- 25% remaining) | < 25 | ≥ 25 | F (F = >75-100% remaining)
11 | Cn1ncc(-c2ccc3c(c2)CN(C2CCC(=O)NC2=O)C3=O)c1-c1cccc2c1CCC2 (stereo not drawn) [Example 114] | E (E = >25-75% remaining) | < 25 | ≥ 25 | F (F = >75-100% remaining)
12 | Cn1ncc(-c2ccc3c(c2)CN(C2CCC(=O)NC2=O)C3=O)c1-c1ccccc1C1CC1 (stereo not drawn) [Example 115] | E (E = >25-75% remaining) | < 25 | ≥ 25 | F (F = >75-100% remaining)
13 | Cn1ncc(-c2ccc3c(c2)CN(C2CCC(=O)NC2=O)C3=O)c1C1CC1 (stereo not drawn) [Example 116] | E (E = >25-75% remaining) | ≥ 25 | ≥ 25 | F (F = >75-100% remaining)
14 | Cn1c(C2CC2)nc(-c2ccc3c(c2)CN(C2CCC(=O)NC2=O)C3=O)c1-c1cncnc1 (stereo not drawn) [Example 117, 3-(5-(2-cyclopropyl-1-methyl-5-(pyrimidin-5-yl)-1H-imidazol-4-yl)-1-oxoisoindolin-2-yl)piperidine-2,6-dione] | C (C = 0-10% remaining) | < 25 | ≥ 25 | F (F = >75-100% remaining)
15 | O=C1CCC(N2Cc3cc(-c4c[nH]nc4-c4ccccn4)ccc3C2=O)C(=O)N1 (stereo not drawn) [Example 118, 3-(1-oxo-5-(3-(pyridin-2-yl)-1H-pyrazol-4-yl)isoindolin-2-yl)piperidine-2,6-dione] | E (E = >25-75% remaining) | ≥ 25 | ≥ 25 | F (F = >75-100% remaining)
